The values that follow come from patent US8586571B2, “Heterocyclic compound” (Takeda Pharmaceutical Company Limited, priority 2007, dated 2013).

Each structure is given as a SMILES string.

In one experiment the target is human RBP4 (Homo sapiens (Human), UniProt P02753). The experiment is described as follows: Binding assay by Retinol-RBP4-TTR ELISA (human-type ELISA). As to conditions: inhibition of binding of RBP4 with retinol and TTR; retinol 0.5 μM; read-out: human RBP4 binding inhibitory activity (IC50 nM). Here is the method:
The action of the compound of the present invention to inhibit binding of RBP4 and retinol and TTR was evaluated using the Retinol-RBP4-TTR ELISA (human-type ELISA) system shown below.
Binding Assay by Retinol-RBP4-TTR ELISA
This ELISA system detects a complex of retinol, RBP4 and TTR by Streptoavidin-Biotin reaction.
His-tagged human RBP4 used was prepared in the above-mentioned 1C.
Biotinylate human TTR used was prepared in the above-mentioned 1E.
Streptavidin (20 μl) (10 μg/ml Streptavidin type II (Wako Pure Chemical Industries, Ltd.), 10 mM Tris-HCl (pH 7.5), 10 mM NaCl) was added to a 384 well black maxisorp plate (Nunc), and the plate was subjected to centrifugation (1000 rpm, 1 min) and coated overnight at 4° C. The plate was washed twice with PBST (PBS, 0.05% Tween 20, 100 μl/well) and blocked with 25% Block Ace (Snow Brand Milk Products Co., Ltd., PBS, 100 μl/well). The plate was subjected to centrifugation (1000 rpm, 1 min) and incubated at room temperature for 4 hr or overnight at 4° C. The plate was washed twice with PEST (PBS, 0.05% Tween 20, 100 μl/well), and biotinylated human TTR (stock solution concentration 1.3 mg/ml) diluted 1000-fold with PBST was added at 20 μl/well. The plate was subjected to centrifugation (1000 rpm, 1 min) and stood still at room temperature for 1.5 hr or overnight at 4° C. The plate was washed 3 times with PBST (100 μl/well), and His-tagged human RBP4 (stock solution concentration 0.96 mg/ml) diluted 4000-fold with a reaction buffer (50 mM Tris-HCl, 150 mM NaCl, 0.005% Tween 20, 1 mM DTT, 0.1% BSA) was added at 10 μl/well. The dilution series (8 doses from 10 mM, 200-fold concentration) of the compound was prepared with DMSO, and 1 μl of each was added to a reaction buffer (200 μl) containing retinol (0.5 μM) (Sigma-Aldrich Co.). A reaction buffer (200 μl) containing retinol and added with DMSO was used as a positive control, and reaction buffer (200 μl) free of retinol and added with DMSO was used as a negative control. Mixed solutions of retinol and the compound were added to the plate at 15 μl/well. The mixture was stirred in a platemixer subjected to centrifugation (1000 rpm, 1 min) and reacted at room temperature for 2 hr. A 35% Block Ace solution diluted with the reaction buffer was added at 10 μl/well, centrifuged (1000 rpm, 1 min) and reacted at room temperature for 30 min. The plate was washed 3 times with PBST (100 μl/well) and SuperSignal ELISA Femto Maximum Sensitivity Substrate reagent (PIERCE) was added at 30 μl/well, and the luminescence was measured by a platereader (Wallac).
The binding inhibitory rate of the compound was determined by 100×(test compound value-negative control value)/(positive control value-negative control value). The binding activity (IC50) was calculated from the binding inhibitory rate at each compound concentration using a graph drawing software, Prism (GraphPad Software Inc.).
In general terms: In an ELISA, binding on a coated surface is turned into a signal by an enzyme label.

The next experiment addresses RBP4 (Mus musculus (Mouse), UniProt Q00724). The experiment can be described thus: Blood RBP4 lowering action in C57BL/6J mouse (plasma RBP4 by ELISA). It counts as in vivo. The note with it: mean±SD (n=5); for RBP4 (% of initial/Control) 4 hr later: 4 hr after single oral 50 mg/kg; for RBP4 (% of initial/Control) 7 hr later: 7 hr after single oral 50 mg/kg; for RBP4 (% of initial/Control) 24 hr later: 24 hr after single oral 50 mg/kg. Here is the method: A blood RBP4 lowering action of the compound of the present invention was evaluated using C57BL/6J mouse.
Male 7- to 15-week-old C57BL/6J mice (Charles River Laboratories Japan Inc.) were individually bred for acclimation for 4-6 days under conditions with free access to CE-2 solid food (CLEA Japan, Inc.), and grouped based on the body weight (5 per group). The next day of grouping, blood samples were collected from the orbital venous plexus, and plasma was separated (0 hr value). Thereafter, the test compounds (Examples 12, 143, 164, 189, 197, 207 and 215) were orally administered at a dose of 50 mg/kg (solvent: 0.5% methylcellulose solution (10 mL/kg)). At 4, 7 and 24 hr after administration of the compounds, blood samples were collected from the orbital venous plexus, and plasma was separated. A 0.5% methylcellulose solution (10 mL/kg) was orally administered to the control group.
The RBP4 level of the collected plasma was measured by ELISA. RBP4 was quantified by the following steps using a rabbit anti-mouse RBP4 polyclonal antibody (Hokudo Co., Ltd). A 96 well ELISA plate was coated with 50 μg/mL of the antibody (100 μL) and stood at 4° C. overnight. After blocking with BlockAce (DAINIPPON PHARMACEUTICAL CO., LTD.), mouse RBP4 or a sample (100 μL) was added and the plate was stood at room temperature for 2 hr. After washing with PBS-0.5% Tween 20, HRP-labeled anti-RBP4 antibody (prepared by labeling RBP4 polyclonal antibody (Hokudo Co., Ltd) with HRP (DOJINDO LABORATORIES)) was added by 100 μL, and the plate was stood at room temperature for 1 hr. After washing, TMB (Dako Cytomations) was added, and the mixture was stood at room temperature for 20 min to allow color development, and the reaction was quenched with 2N sulfuric acid. Thereafter, the absorbance at A450 nm was measured on a platereader. The amount of change from the initial value of each animal was determined as a relative value from the control group (% of initial/Control) at each time point. The results are shown in the following in mean±standard deviation (n=5).

The next experiment relates to Zucker fa/fa rat. The experiment is described as follows: Anti-diabetes action using Zucker fa/fa rat (Takeda Pharmaceutical Company Limited). The experiment is classed as in vivo. As to conditions: oral 30 mg/kg for 2 weeks. Here is the method: An anti-diabetes action and a blood triglyceride (hereinafter TG)-lowering action of the compound of the present invention were evaluated using Zucker fa/fa rats.
Male 7-week-old Zucker fa/fa rats (Takeda Pharmaceutical Company Limited) were bred in group on CE-2 solid food (CLEA Japan, Inc.) until 7-week-old, thereafter bred on high-fat diet D06110702 (LSG Corporation) for acclimation under conditions with free access to food. At 11-week-old, the rats were grouped based on the body weight, blood glucose level, glycated hemoglobin level, blood RBP4 level and blood insulin level value (6 per group). Thereafter, the test compound (Example 143) was orally administered at a dose of 30 mg/kg (solvent: 0.5% methylcellulose solution (5 mL/kg)) for 2 weeks. The next day of the final administration of the compound, blood samples were collected from the tail vein, and plasma was separated. Using the collected plasma, (1) RBP4 concentration and (2) glycated hemoglobin level were measured. (1) was quantified according to the protocol described in Experimental Example 2. (2) was measured using Tosoh Corporation automatic glycohemoglobin analyzer (HLC-723 GHbV A1c2.2 or HLC-723G7 GHbV A1c2.2).
A 0.5% methylcellulose solution (5 mL/kg) was orally administered to the control group. […] The results are shown in the is following in mean±standard deviation (n=6). In the following Table, glycated hemoglobin change is obtained by subtracting the value before administration from that after administration.

In general, IC50 refers to the point on the concentration scale where inhibition reaches its midpoint.

As to `CC(C)(C)c1cc(F)ccc1OC1CN(C(=O)c2ccccn2)C1` [Example 6, (3-(2-tert-butyl-4-fluorophenoxy)azetidin-1-yl)(pyridin-2-yl)methanone], at human RBP4, the IC50 came to 20 nM.

For `CC(C)(C)c1ccccc1OC1CN(C(=O)C2(C(=O)O)CC2)C1` [Example 14, 1-(3-(2-tert-butylphenoxy)azetidine-1-carbonyl)cyclopropanecarboxylic acid], the IC50 on human RBP4 was 24 nM.

With `CC(C)(C)c1ccccc1OC1CCN(C(=O)c2ccccn2)CC1` [Example 50, (4-(2-tert-butylphenoxy)piperidin-1-yl)(pyridin-2-yl)methanone], the IC50 on human RBP4 was 5 nM.

Take `CC(C)(C)c1cc(Cl)ccc1OC1CN(C(=O)CCC(=O)O)C1` [Example 189, 4-[3-(2-tert-butyl-4-chlorophenoxy)azetidin-1-yl]-4-oxobutanoic acid]: the IC50 on human RBP4 was determined as 71 nM. In addition, at RBP4, the “RBP4 (% of initial/Control) 4 hr later” value is given as 51.5 ± 1.7 % of initial/Control, the “RBP4 (% of initial/Control) 7 hr later” value is reported as 42.1 ± 1.3 % of initial/Control and the “RBP4 (% of initial/Control) 24 hr later” value was 69.7 ± 9.6 % of initial/Control.

As for `CC(C)(C)c1cc(F)ccc1OC1CN(C(=O)CCC(=O)O)C1` [Example 80, 4-[3-(2-tert-butyl-4-fluorophenoxy)azetidin-1-yl]-4-oxobutanoic acid], on human RBP4, the IC50 came out at 20 nM.

Regarding `CC(C)(C)c1cc(F)ccc1OCC1CCN(C(=O)CC(=O)O)C1` (stereo not drawn) [Example 215, 3-{3-[(2-tert-butyl-4-fluorophenoxy)methyl]pyrrolidin-1-yl}-3-oxopropanoic acid], the IC50 on human RBP4 was 34 nM. In addition, on RBP4, the “RBP4 (% of initial/Control) 4 hr later” value was 64.3 ± 1.2 % of initial/Control, the “RBP4 (% of initial/Control) 7 hr later” value is listed as 60.6 ± 0.6 % of initial/Control and the “RBP4 (% of initial/Control) 24 hr later” value is reported as 64.7 ± 4.3 % of initial/Control.

Regarding `CC(C)(C)c1ccccc1OCC1CCN(C(=O)CC(=O)O)C1` (stereo not drawn) [Example 197, 3-{3-[(2-tert-butylphenoxy)methyl]pyrrolidin-1-yl}-3-oxopropanoic acid], the IC50 on human RBP4 is 40 nM. Further, on RBP4, the “RBP4 (% of initial/Control) 4 hr later” value is listed as 39.2 ± 1.4 % of initial/Control, the “RBP4 (% of initial/Control) 7 hr later” value was 29.2 ± 1.0 % of initial/Control and the “RBP4 (% of initial/Control) 24 hr later” value was 40.4 ± 3.0 % of initial/Control.

For the molecule `CC(C)(C)c1cc(Cl)ccc1OCC1CN(C(=O)C(=O)O)C1` [Example 207, {3-[(2-tert-butyl-4-chlorophenoxy)methyl]azetidin-1-yl}(oxo)acetic acid], the IC50 at human RBP4 was 12 nM. On RBP4, the “RBP4 (% of initial/Control) 4 hr later” value is on record as 55.6 ± 1.0 % of initial/Control, the “RBP4 (% of initial/Control) 7 hr later” value is 49.0 ± 1.3 % of initial/Control and the “RBP4 (% of initial/Control) 24 hr later” value was 69.5 ± 6.6 % of initial/Control.

As for `CC(C)(C)c1ccccc1S(=O)(=O)C1CN(C(=O)c2ccccc2)C1` [Example 20, (3-(2-tert-butylphenylsulfonyl)azetidin-1-yl)(phenyl)methanone], the IC50 on human RBP4 amounted to 290 nM.

As for `CC(C)(C)c1ccccc1OC1CN(C(=O)CC(=O)O)C1` [Example 10, 3-(3-(2-tert-butylphenoxy)azetidin-1-yl)-3-oxopropanoic acid], the IC50 at human RBP4 was 36 nM.

`CCCCCS(=O)(=O)NC(=O)C(=O)N1CCC(COc2ccccc2C(C)(C)C)CC1` [Example 121, 2-{4-[(2-tert-butylphenoxy)methyl]piperidin-1-yl}-2-oxo-N-(pentylsulfonyl)acetamide]: on human RBP4, the IC50 amounted to 790 nM.

Consider `CC(C)(C)c1ccccc1SC1CN(C(=O)c2ccccn2)C1` [Example 17, (3-(2-tert-butylphenylthio)azetidin-1-yl)(pyridin-2-yl)methanone], for which, at human RBP4, the IC50 is 10 nM.

With `CC(C)(C)c1cc(Cl)ccc1OC1CN(C(=O)c2ccccn2)C1` [Example 164, 2-{[3-(2-tert-butyl-4-chlorophenoxy)azetidin-1-yl]carbonyl}pyridine], the IC50 on human RBP4 is 15 nM. Also, at RBP4, the “RBP4 (% of initial/Control) 4 hr later” value is reported as 55.6 ± 6.3 % of initial/Control, the “RBP4 (% of initial/Control) 7 hr later” value is listed as 46.4 ± 7.2 % of initial/Control and the “RBP4 (% of initial/Control) 24 hr later” value is given as 74.5 ± 8.9 % of initial/Control.

For `CC(C)(C)c1cc(F)ccc1OCC1CN(C(=O)CC(=O)O)C1` [Example 143, 3-{3-[(2-tert-butyl-4-fluorophenoxy)methyl]azetidin-1-yl}-3-oxopropanoic acid], at human RBP4, the IC50 was 23 nM. Also, at RBP4, the “RBP4 (% of initial/Control) 4 hr later” value was 46.7 ± 6.6 % of initial/Control, the “RBP4 (% of initial/Control) 7 hr later” value is 36.2 ± 4.2 % of initial/Control and the “RBP4 (% of initial/Control) 24 hr later” value is recorded as 45.2 ± 9.1 % of initial/Control. Also, in the experiment on Zucker fa/fa rat (versus control), the “blood RBP4 concentration (result in words)” value is listed as “significant decrease” and the “glycated hemoglobin (result in words)” value is given as “significant decrease”. The “RBP4” value in the experiment on Zucker fa/fa rat (plasma, high-fat diet, mean±SD (n=6)) amounted to 7.3 ± 1.2 µg/mL. Also, the “glycated hemoglobin change(%)” value in the experiment on Zucker fa/fa rat (value after minus before administration, mean±SD (n=6)) was 0.6 ± 0.4%.
